From paper PMC9877316, “Identification of a novel P2X7 antagonist using structure-based virtual screening” (Frontiers in Pharmacology, 2023) come the findings set out here.

≈ marks a conversion by molar mass, not a printed value.

One series concerns the target T1, human P2X4 (Homo sapiens, UniProt Q99571).
T1 construct: expressed in transfected cells
T1 sequence (Q99571 1-388): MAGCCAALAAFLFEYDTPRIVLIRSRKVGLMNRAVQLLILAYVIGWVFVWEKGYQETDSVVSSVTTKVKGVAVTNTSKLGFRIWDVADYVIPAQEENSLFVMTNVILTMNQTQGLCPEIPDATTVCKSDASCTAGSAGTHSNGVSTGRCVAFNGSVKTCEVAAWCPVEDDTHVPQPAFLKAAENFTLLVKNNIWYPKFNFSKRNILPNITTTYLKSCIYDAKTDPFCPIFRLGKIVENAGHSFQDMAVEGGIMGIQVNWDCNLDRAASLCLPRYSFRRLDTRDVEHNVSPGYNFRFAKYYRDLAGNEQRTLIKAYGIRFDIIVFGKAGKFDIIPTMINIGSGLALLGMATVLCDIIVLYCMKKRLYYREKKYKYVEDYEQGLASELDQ
Kind of series: Fluo-4 ATP-induced calcium influx assay. The series is classed as cell-based. As to conditions: 10 µM compound; 1.2 µM ATP; 1321N1 cells. The method, then: 1321N1 astrocytoma cells and HEK-293 cells were cultured (at 37°C, 5% CO2) in Dulbecco’s modified Eagle’s medium (DMEM/F-12 with Glutamax) supplemented with 10% foetal bovine serum (FBS) and 200 unit/ml of penicillin and streptomycin antibiotics (Fisher Scientific). […]
Cells were plated the day before assay into poly-lysine-coated 96-well plates at 40–65,000 cells/ml. […] A Fluoroskan Ascent FL plate reader (Fisher Scientific) equipped with a solution dispenser and an appropriate filter pair (excitation: 485 nm, emission: 538 nm) was used to record 5 s baseline followed by P2X4-mediated calcium influx measurements for 20–25 s after ATP stimulation (20 μL injection of solutions dissolved in modified Ringer’s buffer).
The antagonist activity of the 17 compounds (applied at 10 µM) was assayed initially on 1321N1 astrocytoma cells stably expressing human P2X4 receptors by measuring the ATP-induced (applied at 1.2 µM) increase in Fluo-4 fluorescence due to calcium influx via P2X4, using 2 µM BX430 as a positive control (Figure 1A). […] The ATP-induced rate of uptake of YoPro-1 dye was measured upon application of at 300 µM ATP, using .1 µM A740003 as a positive control (Figure 1B).

A further series in a line: Solubility observations. Particulars: read-out: maximum concentration that could be applied (due to solubility issues). The series is classed as physicochemical.
Another series deals with T2, rat P2X7-GFP (Rattus norvegicus, UniProt Q64663).
T2 construct: expressed in transfected cells; host or cells: HEK-293 cells stably expressing rat P2X7-GFP (patch clamp)
T2 sequence (Q64663 1-595): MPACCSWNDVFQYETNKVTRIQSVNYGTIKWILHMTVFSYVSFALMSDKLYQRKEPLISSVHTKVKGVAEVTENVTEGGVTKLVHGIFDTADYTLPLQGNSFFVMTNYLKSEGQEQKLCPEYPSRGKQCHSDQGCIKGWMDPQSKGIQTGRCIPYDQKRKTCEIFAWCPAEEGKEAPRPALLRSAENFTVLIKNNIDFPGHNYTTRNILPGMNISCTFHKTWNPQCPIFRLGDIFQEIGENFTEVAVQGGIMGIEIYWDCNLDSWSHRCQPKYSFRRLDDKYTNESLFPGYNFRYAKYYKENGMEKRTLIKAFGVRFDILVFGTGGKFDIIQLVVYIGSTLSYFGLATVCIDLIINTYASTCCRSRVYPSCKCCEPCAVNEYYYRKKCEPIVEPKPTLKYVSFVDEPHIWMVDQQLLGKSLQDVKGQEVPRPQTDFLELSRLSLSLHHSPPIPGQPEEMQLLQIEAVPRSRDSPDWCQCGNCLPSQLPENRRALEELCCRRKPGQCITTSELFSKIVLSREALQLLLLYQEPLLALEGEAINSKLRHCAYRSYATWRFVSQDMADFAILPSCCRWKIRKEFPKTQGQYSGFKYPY
The series can be described thus: Whole-cell patch clamp electrophysiology. It counts as cell-based. As for the experimental part:
Whole-cell patch-clamp traces were recorded at room temperature using patch pipettes pulled from borosilicate glass (World Precision Instruments, Sarasota, FL, United States). Pipettes were filled with internal solution (IS) containing (in mM): 145 NaCl, 10 EGTA and 10 HEPES, with the pH adjusted to 7.3 with NaOH and had resistances of 3–5 MΩ. Cells were constantly perfused in a bath with ECS-LD. Currents were recorded at a holding membrane potential of −60 mV using an Axon Instruments Axopatch Multiclamp 700A amplifier and Digidata 1322A A/D interface (Molecular Devices, Sunnyvale, CA, United States). […] ATP applications were made at 90-s intervals. Solutions were applied to patch-clamped cells with the help of a rapid perfusion system (RSC-160, Biologic, Claix, France), allowing solution exchange times in the range […].
In order to confirm GP-25 as a competitive (orthosteric) antagonist, BzATP concentration-response curves (ranging between 300 μM and .03 µM) were constructed for rat P2X7-GFP in the YoPro-1 uptake assay in the presence of increasing concentrations of GP-25 (Figure 3A).
Background: Patch clamp records ionic current or voltage across a cell membrane.

As to `COC(=O)C1=C(C)NC2=C(C(=O)c3ccccc32)C1c1cc(Br)ccc1OCC(=O)O` (stereo not shown) [Compound 9, (4-bromo-2-(3-(methoxycarbonyl)-2-methyl-5-oxo-4,5-dihydro-1H-indeno(1,2-b)pyridine-4-yl)phenoxy)acetic acid], at human P2X4, the “antagonist activity at human P2X4” value is “no activity”. Also, the solubility in the series “Solubility observations” worked out at 100 µM (≈ 48.4 µg/mL). The “reduction in P2X7 activity at 25 µM” value on rat P2X7-GFP (25 µM compound, patch clamp) was “statistically significant reduction”. Moreover, at rat P2X7-GFP (GP-25 pre-applied for 2 min, 300 µM ATP, HEK-293 cells), the “inhibition of ATP-evoked currents” value is given as “concentration-dependent inhibition”.
